We go through 14 molecules from patent US8426406B2, “Glucocorticoid receptor agonist comprising 2,2,4-trimethyl-6-phenyl-1,2-dihydroquinoline derivatives having substituted oxy group” (Santen Pharmaceutical Co., Ltd., priority 2008, dated 2013).

Test [1] deals with allergic conjunctivitis model in mice. The test is described as follows: Inhibitory effect on the vascular hyper-permeability in allergic conjunctivitis model. Type of test: in vivo. Particulars: Mus musculus, 1% (W/V) test compound suspension instilled to the right eye three times before ovalbumin instillation, dye leakage vs vehicle, mean of 5-6 eyes, read-out: The inhibition ratio of the vascular hyper-permeability (%). Here is the method:
In order to evaluate anti-allergic effect, inhibitory effect on the vascular hyper-permeability in allergic conjunctivitis model in mice was examined. This effect was calculated based on dye leakages of vehicle-treated group (control group) and test compound-treated group.
By adding 0.5% polysorbate 80/saline to the test compound, a 1% (W/V) test compound suspension was prepared.
1) Ovalbumin absorbed on aluminum hydroxide gel was dissolved in saline (20 μg ovalbumin/mL), and male BALE/c mice, 6 weeks old, were actively sensitized to the antigen by intraperitoneal injections of 500 μL of it.
2) On the 6th day from sensitization, sensitized mice were boosted by additional intraperitoneal injections of 500 μL ovalbumin absorbed on aluminum hydroxide gel (20 μg ovalbumin/mL).
3) On the 11th day, 12th day, 13th day, 14th day and 15th day from the first sensitization, allergic conjunctivitis were induced by installations to the right eyes of the mice of […] of 50% glycerol solution containing 15% (W/V) ovalbumin.
4) […] of test compound suspension per eye was instilled to the right eye of the above mice 15 min, 1 hr and 3 hrs before ovalbumin instillation (three times) on the 15th day from sensitization. In vehicle-treated group (control group), the mice were instilled with 0.5% polysorbate 80/saline in substitution for test compound suspension.
5) Just before ovalbumin instillation on the 15th day from sensitization, all animals received a tail intravenous injection of 0.1% Evans blue dye. The right periocular tissues of the mice, which were the leaked parts of dye, were collected 30 min after ovalbumin instillation. The dye was extracted from the tissues with the dye extraction liquid. Then the absorbance of the dye extract was measured. The dye leakage was calculated from the absorbance value, and the inhibition ratio of the vascular hyper-permeability of test compound-treated group was calculated according to calculation equation 1. The inhibition ratio of the vascular hyper-permeability of test compound-treated group(%)=(1−Ax/Ao)×100 (Calculation Equation 1) Ao: Dye leakage in vehicle-treated group (control group) Ax: Dye leakage in test compound-treated group (Test Results and Discussion)

The subject of test [2] is IL-6 production induced by lipopolysaccharide (LPS) in human corneal epithelial cells. The test is described as follows: Evaluation test for GR agonist activity: inhibition of LPS-induced IL-6 production in human corneal epithelial cells (HCE-T). Particulars: Corneal epithelial cell, 10 μL of 100 μM test compound solution per well, 4 hours incubation, efficacy relative to DEX. It is filed as cell-based. In a few lines:
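SV40-immortalized HCE-T cells were treated with test compound (100 μM solution, stock before dilution into well) plus LPS (1 μg/mL solution, likewise pre-dilution) for 4 hours in 10% FBS-DMEM/F12. IL-6 in supernatants was measured by HTRF. Inhibition was calculated relative to LPS-plus-DMSO and no-LPS controls, and efficacy was expressed as % of DEX inhibition.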

The test system of test [3] is choroidal neovascularization (CNV) model in rats. The test is described as follows: Evaluation test for inhibitory effect of choroidal neovascularization (laser induced CNV model in rats). It is filed as in vivo. Particulars: Brown Norway rats, 1% (w/v) suspension eye drops four times a day or 20 mg/mL subconjunctival injection (route not given), vs vehicle, mean of 7-8 eyes in 4 rats. Here is the method:
The choroidal neovascularization (CNV) model in rats is known as one of the popular methods for evaluating the CNV inhibitory effect of drugs. This method is reported in Graefe's Arch. Cli. Exp. Ophthalmol., 235, 313-319 (1997). According to this method, the CNV examinations were performed to evaluate the CNV inhibitory effect of test compounds by comparing the incidence rates of CNV in vehicle group (control group) with test compound-treated groups.
For eye drop administration, a 1% (w/v) test compound suspension was prepared by adding 0.5% polysorbate 80/saline to the test compound. For subconjunctival injection, a 20 mg/mL test compound suspension was prepared by adding 0.5% hydrogenated castor oil/saline to the test compound.
1) Brown Norway male rats (7-8 weeks, 140-240 g) were anesthetized with intramuscular injection (1 mL/kg) of the mixed solution (5% ketamine HCl: 2% xylazine HCl=7:1).
2) After mydriasis using tropicamide phenylephrine hydrochloride eye drops (trade name Mydrin P), laser photocoagulation of bruch's membrane in rats was performed with krypton laser photocoagulation machine. Laser irradiation was performed at 8-9 points per eye avoiding thick retinal blood vessels in ocular fundus and focusing on the depth of retina. The conditions were 100 μm spot size, 100 mW power, 0.1 second duration.
3) After laser photocoagulation, photographs of ocular fundus were taken and the laser photocoagulation (laser irradiation) points were confirmed.
1) In case of eye drops administration, a test compound suspension was administrated four times a day from laser irradiation day (the 1st day) to the 8th day. In case of subconjunctival injection, a 50 μL test compound suspension was injected into conjunctivae just after laser irradiation.
2) In vehicle group (control group), 0.5% polysorbate 80/saline or 0.5% hydrogenated castor oil/saline was used instead of a test compound suspension. And the test was performed according to the method 1).
1) 7 days after laser irradiation, 0.1 mL of 10% fluorescein was injected into rat tail vein and fluorescein angiography was performed.
2) When the fluorescent leakage was not detected in the fluorescent angiography, the spot was judged to be a negative spot. When the fluorescent leakage was detected, the spot was judged to be a positive spot. When the fluorescent leakage was detected as a little leakage, two spots were counted as one positive spot.
3) The neovascular incidence rate was calculated according to the equation 1. According to the equation 2, the ratio of neovascular incidence rate in test compound group to vehicle group was calculated. Neovascular incidence rate(%)=(Positive spots/all spots)×100 (Equation 1) Angiogenic inhibition ratio in test compound group(%)=(1−Ax/Ao)×100 (Equation 2)
Ao: Neovascular incidence rate in vehicle group (control group)
Ax: Neovascular incidence rate in test compound group

In general, Emax refers to the size of the effect at its maximum, as opposed to the concentration needed. As to `COc1ccccc1NCc1c(-c2ccc(OC(=O)c3cccnc3)cc2OC)ccc2c1C(C)=CC(C)(C)N2` [Compound 1-97, 5-(2-Methoxyphenylaminomethyl)-6-[2-methoxy-4-(pyridin-3-ylcarbonyloxy)phenyl]-2,2,4-trimethyl-1,2-dihydroquinoline], the inhibition in vivo at 10000 µg/mL in test [1] stood at 21%. In test [2], this molecule showed an Emax of 81%.

Turning to `COc1cc(OC(=O)c2ccccc2Cl)ccc1-c1ccc2c(c1COC(=O)c1ccc(C)s1)C(C)=CC(C)(C)N2` [Compound 1-139, 6-[4-(2-Chlorobenzoyloxy)-2-methoxyphenyl]-5-(5-methylthiophen-2-ylcarbonyloxymethyl)-2,2,4-trimethyl-1,2-dihydroquinoline], in test [1], the inhibition in vivo at 10000 µg/mL came out at 15%. Also, the Emax in test [2] came out at 104%.

Consider `COc1ccccc1C(=O)Oc1ccc(-c2ccc3c(c2COC(=O)c2ccc(C)s2)C(C)=CC(C)(C)N3)c(OC)c1` [Compound 1-136, 6-[2-Methoxy-4-(2-methoxybenzoyloxy)phenyl]-5-(5-methylthiophen-2-ylcarbonyloxymethyl)-2,2,4-trimethyl-1,2-dihydroquinoline], for which the inhibition in vivo at 10000 µg/mL in test [1] worked out at 15%. The molecule also returned an Emax in test [2] of 89%.

Regarding `COc1cc(OC(=O)c2ccco2)ccc1-c1ccc2c(c1COC(=O)c1ccc(C)s1)C(C)=CC(C)(C)N2` [Compound 1-138, 6-[4-(Furan-2-ylcarbonyloxy)-2-methoxyphenyl]-5-(5-methylthiophen-2-ylcarbonyloxymethyl)-2,2,4-trimethyl-1,2-dihydroquinoline], the inhibition in vivo at 10000 µg/mL in test [1] turned out to be 16%. The molecule further registered an Emax in test [2] of 79%.

`COc1cc(OC(=O)c2ccccc2Cl)ccc1-c1ccc2c(c1COc1cc(F)ccc1C)C(C)=CC(C)(C)N2` [Compound 1-7, 6-[4-(2-Chlorobenzoyloxy)-2-methoxyphenyl]-5-(5-fluoro-2-methylphenoxymethyl)-2,2,4-trimethyl-1,2-dihydroquinoline]: the inhibition in vivo at 10000 µg/mL in test [1] is 28%. For the same molecule, in test [2], the Emax came out at 78%.

Regarding `COc1ccccc1NCc1c(-c2ccc(OC(=O)c3ccncc3)cc2OC)ccc2c1C(C)=CC(C)(C)N2` [Compound 1-102, 5-(2-Methoxyphenylaminomethyl)-6-[2-methoxy-4-(pyridin-4-ylcarbonyloxy)phenyl]-2,2,4-trimethyl-1,2-dihydroquinoline], the inhibition in vivo at 10000 µg/mL in test [1] turned out to be 16%. In test [2], this molecule showed an Emax of 99%.

Take `COc1ccc([N+](=O)[O-])cc1OCc1c(-c2ccc(OS(=O)(=O)C3CC3)cc2OC)ccc2c1C(C)=CC(C)(C)N2` [Compound 4-8, 6-(4-Cyclopropylsulfonyloxy-2-methoxyphenyl)-5-(2-methoxy-5-nitrophenoxymethyl)-2,2,4-trimethyl-1,2-dihydroquinoline]: the “Angiogenic inhibition ratio (%)” value in test [3] stood at 26%. In test [2], this molecule gave an Emax of 78%.

Consider `CCC(=O)Oc1ccc(OC)c(-c2ccc3c(c2COc2cc(F)ccc2C)C(C)=CC(C)(C)N3)c1` [Compound 1-18, 5-(5-Fluoro-2-methylphenoxymethyl)-6-(2-methoxy-5-propionyloxyphenyl)-2,2,4-trimethyl-1,2-dihydroquinoline], for which the inhibition in vivo at 10000 µg/mL in test [1] was 30%. Moreover, in test [2], the Emax was 77%.

Consider `COc1cc(OS(=O)(=O)C(C)C)ccc1-c1ccc2c(c1COc1cc(F)ccc1C)C(C)=CC(C)(C)N2` [Compound 4-5, 5-(5-Fluoro-2-methylphenoxymethyl)-6-(4-isopropylsulfonyloxy-2-methoxyphenyl)-2,2,4-trimethyl-1,2-dihydroquinoline], for which the “Angiogenic inhibition ratio (%)” value in test [3] is on record as 38%. This molecule returned an Emax in test [2] of 90%.

Turning to `COc1ccccc1NCc1c(-c2ccc(OC(=O)N3CCOCC3)cc2OC)ccc2c1C(C)=CC(C)(C)N2` [Compound 6-35, 6-[2-Methoxy-4-(morpholin-4-ylcarbonyloxy)phenyl]-5-(2-methoxyphenylaminomethyl)-2,2,4-trimethyl-1,2-dihydroquinoline], the “Angiogenic inhibition ratio (%)” value in test [3] worked out at 26%. The Emax in test [2] stood at 87%.

In the case of `COc1cc(OC(=O)c2ccoc2)ccc1-c1ccc2c(c1COc1cc(F)ccc1C)C(C)=CC(C)(C)N2` [Compound 1-25, 5-(5-Fluoro-2-methylphenoxymethyl)-6-[4-(furan-3-ylcarbonyloxy)-2-methoxyphenyl]-2,2,4-trimethyl-1,2-dihydroquinoline], the “Angiogenic inhibition ratio (%)” value in test [3] was determined as 50%. Further, the Emax in test [2] came out at 83%.

`COc1ccc(OC(=O)c2cccnc2)cc1-c1ccc2c(c1COc1cc(F)ccc1C)C(C)=CC(C)(C)N2` [Compound 1-19, 5-(5-Fluoro-2-methylphenoxymethyl)-6-[2-methoxy-5-(pyridin-3-ylcarbonyloxy)phenyl]-2,2,4-trimethyl-1,2-dihydroquinoline]: the “Angiogenic inhibition ratio (%)” value in test [3] came out at 30%. Further, the Emax in test [2] was determined as 78%.

Turning to `COc1cc(OC(=O)c2cccnc2)ccc1-c1ccc2c(c1COC(=O)c1ccc(C)s1)C(C)=CC(C)(C)N2` [Compound 1-137, 6-[2-Methoxy-4-(pyridin-3-ylcarbonyloxy)phenyl]-5-(5-methylthiophen-2-ylcarbonyloxymethyl)-2,2,4-trimethyl-1,2-dihydroquinoline], the inhibition in vivo at 10000 µg/mL in test [1] came out at 26%. For the same molecule, the Emax in test [2] is 83%.

As for `COc1cc(OC(=O)c2cccnc2)ccc1-c1ccc2c(c1CNc1cc(F)ccc1C)C(C)=CC(C)(C)N2` [Compound 1-105, 5-(5-Fluoro-2-methylphenylaminomethyl)-6-[2-methoxy-4-(pyridin-3-ylcarbonyloxy)phenyl]-2,2,4-trimethyl-1,2-dihydroquinoline], the inhibition in vivo at 10000 µg/mL in test [1] is 18%. In test [2], this molecule returned a maximal effect (Emax) of 97%.
